# pIC50: −log10 of the molar value. Calls of active or inactive are those of the source. The rule behind the calls is not given here.
# Biological target: Lethal factor (Bacillus anthracis) (UniProt P15917)
# Assay: Bacillus anthracis LF protease inhibitors, dose response, biochemical, multiplex microsphere (AID 720672)
# Settings: multiplex microsphere LF protease substrate cleavage, flow cytometry
# Sequence of Lethal factor (Bacillus anthracis) (P15917 whole entry, looked up): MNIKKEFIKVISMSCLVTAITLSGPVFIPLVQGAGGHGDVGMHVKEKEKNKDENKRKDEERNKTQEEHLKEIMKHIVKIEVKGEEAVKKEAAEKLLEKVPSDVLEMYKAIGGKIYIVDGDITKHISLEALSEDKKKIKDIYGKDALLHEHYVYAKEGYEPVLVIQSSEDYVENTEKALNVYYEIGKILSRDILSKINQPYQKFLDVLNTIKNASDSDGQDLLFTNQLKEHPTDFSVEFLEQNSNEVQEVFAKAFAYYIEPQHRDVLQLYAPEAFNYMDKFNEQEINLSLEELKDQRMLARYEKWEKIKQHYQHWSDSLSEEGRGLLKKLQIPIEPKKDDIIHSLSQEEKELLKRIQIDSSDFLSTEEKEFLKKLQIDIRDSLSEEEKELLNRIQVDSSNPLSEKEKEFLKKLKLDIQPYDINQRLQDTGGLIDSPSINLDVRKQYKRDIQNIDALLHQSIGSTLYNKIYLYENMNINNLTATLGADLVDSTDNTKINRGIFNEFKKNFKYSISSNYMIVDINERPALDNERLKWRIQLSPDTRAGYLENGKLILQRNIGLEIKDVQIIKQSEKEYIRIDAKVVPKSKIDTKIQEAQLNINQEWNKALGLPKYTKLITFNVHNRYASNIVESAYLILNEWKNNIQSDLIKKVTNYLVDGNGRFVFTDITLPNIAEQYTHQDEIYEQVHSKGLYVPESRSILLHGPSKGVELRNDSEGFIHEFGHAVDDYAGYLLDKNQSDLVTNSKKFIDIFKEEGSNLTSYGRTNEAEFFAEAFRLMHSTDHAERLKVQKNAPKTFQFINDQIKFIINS
SMILES,pIC50,IC50
CCCCOC(=O)Nc1ccc2nc(-c3cccs3)c(-c3cccs3)nc2c1,4.79,–
COc1ccc(-c2cn3nc(-c4ccc(C)cc4)c(-c4ccc(C)cc4)nc3n2)c(OC)c1,–,> 20 µM (inactive)
O=C(Nc1ccc2nc(-c3cccs3)c(-c3cccs3)nc2c1)C1CCC1,–,> 20 µM (inactive)
COc1cccc(-c2cn3nc(-c4ccc(F)cc4)c(-c4ccc(F)cc4)nc3n2)c1,5.12,–
CC(C)(C)NC(=O)Nc1ccc2nc(-c3ccccc3)c(-c3ccccc3)nc2c1,–,> 20 µM (inactive)
CCNC(=O)Nc1ccc2nc(-c3ccccc3)c(-c3ccccc3)nc2c1,–,> 20 µM (inactive)
O=C(Nc1ccc2nc(-c3cccs3)c(-c3cccs3)nc2c1)OCc1ccccc1,–,> 20 µM (inactive)
CCCOC(=O)Nc1ccc2nc(-c3cccs3)c(-c3cccs3)nc2c1,–,> 20 µM (inactive)
O=C(Nc1ccc2nc(-c3cccs3)c(-c3cccs3)nc2c1)NC1CCCC1,–,> 20 µM (inactive)
CCOC(=O)Nc1ccc2nc(-c3cccs3)c(-c3cccs3)nc2c1,–,> 20 µM (inactive)
Fc1ccc(-c2cn3nc(-c4ccccc4)c(-c4ccccc4)nc3n2)cc1,–,> 20 µM (inactive)
O=S(=O)(Nc1ccc2nc(-c3cccs3)c(-c3cccs3)nc2c1)C1CC1,–,> 20 µM (inactive)
COc1ccc(-c2cn3nc(-c4ccc(F)cc4)c(-c4ccc(F)cc4)nc3n2)cc1,5.19,–
CCCNC(=O)Nc1ccc2nc(-c3ccccc3)c(-c3ccccc3)nc2c1,–,> 20 µM (inactive)
O=C(Nc1ccc2nc(-c3ccccc3)c(-c3ccccc3)nc2c1)NC1CCCC1,–,> 20 µM (inactive)
COc1ccccc1-c1cn2nc(-c3ccc(C)cc3)c(-c3ccc(C)cc3)nc2n1,4.89,–
O=C(Nc1ccc2nc(-c3cccs3)c(-c3cccs3)nc2c1)C1CC1,–,> 20 µM (inactive)
Fc1ccc(-c2nc3nc(-c4ccc(OC(F)(F)F)cc4)cn3nc2-c2ccc(F)cc2)cc1,–,> 20 µM (inactive)
COc1cccc(-c2cn3nc(-c4ccccc4)c(-c4ccccc4)nc3n2)c1,4.82,–
COC(=O)Nc1ccc2nc(-c3ccccc3)c(-c3ccccc3)nc2c1,–,> 20 µM (inactive)
Fc1ccc(-c2nc3nc(-c4cccc(F)c4)cn3nc2-c2ccc(F)cc2)cc1,5.17,–

SMILES,pIC50,IC50
CCNC(=O)Nc1ccc2nc(-c3cccs3)c(-c3cccs3)nc2c1,4.79,–
O=C(Nc1ccc2nc(-c3ccccc3)c(-c3ccccc3)nc2c1)C1CCCCC1,–,> 20 µM (inactive)
COc1ccc(-c2nc3nc(-c4ccc(C#N)cc4)cn3nc2-c2ccc(OC)cc2)cc1,–,> 20 µM (inactive)
COc1ccccc1-c1cn2nc(-c3ccc(F)cc3)c(-c3ccc(F)cc3)nc2n1,5.27,–
COc1cccc(-c2cn3nc(-c4ccc(C)cc4)c(-c4ccc(C)cc4)nc3n2)c1,5.37,–
CC(C)NC(=O)Nc1ccc2nc(-c3cccs3)c(-c3cccs3)nc2c1,–,> 20 µM (inactive)
COc1ccc(-c2nc3nc(-c4ccc(OC(F)(F)F)cc4)cn3nc2-c2ccc(OC)cc2)cc1,5.43,–
O=C(Nc1ccc2nc(-c3ccccc3)c(-c3ccccc3)nc2c1)C1CCCC1,–,> 20 µM (inactive)
Cc1ccc(-c2nc3nc(-c4ccc(S(C)(=O)=O)cc4)cn3nc2-c2ccc(C)cc2)cc1,–,> 20 µM (inactive)
FC(F)(F)Oc1ccc(-c2cn3nc(-c4ccccc4)c(-c4ccccc4)nc3n2)cc1,4.75,–
CC(Oc1ccccc1)C(=O)Nc1ccc2nc(-c3ccccc3)c(-c3ccccc3)nc2c1 (configuration not stated),–,> 20 µM (inactive)
CC(C)CS(=O)(=O)Nc1ccc2nc(-c3ccccc3)c(-c3ccccc3)nc2c1,–,> 20 µM (inactive)
Cc1ccc(-c2nc3nc(-c4ccc(OC(F)(F)F)cc4)cn3nc2-c2ccc(C)cc2)cc1,–,> 20 µM (inactive)
COc1ccc(-c2nc3nc(-c4ccccc4)cn3nc2-c2ccc(OC)cc2)cc1,5.20,–
CC(=O)Nc1ccc2nc(-c3ccccc3)c(-c3ccccc3)nc2c1,–,> 20 µM (inactive)
N#Cc1ccc(-c2cn3nc(-c4ccccc4)c(-c4ccccc4)nc3n2)cc1,–,> 20 µM (inactive)
Cc1ccc(-c2cn3nc(-c4ccc(C)cc4)c(-c4ccc(C)cc4)nc3n2)cc1,5.29,–
Cc1ccc(-c2cn3nc(-c4ccc(F)cc4)c(-c4ccc(F)cc4)nc3n2)cc1,5.14,–
CCCS(=O)(=O)Nc1ccc2nc(-c3cccs3)c(-c3cccs3)nc2c1,–,> 20 µM (inactive)
O=S(=O)(Nc1ccc2nc(-c3ccccc3)c(-c3ccccc3)nc2c1)C1CC1,–,> 20 µM (inactive)
CCCOC(=O)Nc1ccc2nc(-c3ccccc3)c(-c3ccccc3)nc2c1,–,> 20 µM (inactive)

SMILES,pIC50,IC50
CC(C)(C)C(=O)Nc1ccc2nc(-c3ccccc3)c(-c3ccccc3)nc2c1,–,> 20 µM (inactive)
COC(=O)Nc1ccc2nc(-c3cccs3)c(-c3cccs3)nc2c1,–,> 20 µM (inactive)
CS(=O)(=O)c1ccc(-c2cn3nc(-c4ccccc4)c(-c4ccccc4)nc3n2)cc1,–,> 20 µM (inactive)
CC(C)OC(=O)Nc1ccc2nc(-c3cccs3)c(-c3cccs3)nc2c1,–,> 20 µM (inactive)
COc1ccc(-c2cn3nc(-c4ccc(F)cc4)c(-c4ccc(F)cc4)nc3n2)c(OC)c1,5.54,–
O=C(Nc1ccc2nc(-c3cccs3)c(-c3cccs3)nc2c1)C1CCCC1,–,> 20 µM (inactive)
O=C(Nc1ccc2nc(-c3ccccc3)c(-c3ccccc3)nc2c1)C1CC1,–,> 20 µM (inactive)
N#Cc1ccc(-c2cn3nc(-c4ccc(F)cc4)c(-c4ccc(F)cc4)nc3n2)cc1,–,> 20 µM (inactive)
CCOC(=O)Nc1ccc2nc(-c3ccccc3)c(-c3ccccc3)nc2c1,–,> 20 µM (inactive)
Cc1ccc(-c2nc3nc(-c4cccc(F)c4)cn3nc2-c2ccc(C)cc2)cc1,5.43,–
Fc1ccc(-c2nc3nc(-c4ccccc4)cn3nc2-c2ccc(F)cc2)cc1,5.02,–
O=C(Nc1ccc2nc(-c3ccccc3)c(-c3ccccc3)nc2c1)OCc1ccccc1,–,> 20 µM (inactive)
CCNC(=S)Nc1ccc2nc(-c3ccccc3)c(-c3ccccc3)nc2c1,–,> 20 µM (inactive)
COc1ccc(-c2nc3nc(-c4ccccc4OC)cn3nc2-c2ccc(OC)cc2)cc1,5.21,–
Fc1cccc(-c2cn3nc(-c4ccccc4)c(-c4ccccc4)nc3n2)c1,4.94,–
COc1ccc(-c2nc3nc(-c4ccc(S(C)(=O)=O)cc4)cn3nc2-c2ccc(OC)cc2)cc1,–,> 20 µM (inactive)
COc1ccc(-c2cn3nc(-c4ccc(C)cc4)c(-c4ccc(C)cc4)nc3n2)cc1,–,> 20 µM (inactive)
CCS(=O)(=O)Nc1ccc2nc(-c3ccccc3)c(-c3ccccc3)nc2c1,–,> 20 µM (inactive)
CCCS(=O)(=O)Nc1ccc2nc(-c3ccccc3)c(-c3ccccc3)nc2c1,–,> 20 µM (inactive)
CCC(=O)Nc1ccc2nc(-c3cccs3)c(-c3cccs3)nc2c1,–,> 20 µM (inactive)
COc1ccc(-c2nc3nc(-c4cccc(OC)c4)cn3nc2-c2ccc(OC)cc2)cc1,5.00,–

SMILES,pIC50,IC50
Cc1ccc(-c2nc3nc(-c4ccc(F)cc4)cn3nc2-c2ccc(C)cc2)cc1,5.23,–
Clc1ccc(-c2cn3nc(-c4ccccc4)c(-c4ccccc4)nc3n2)c(Cl)c1,–,> 20 µM (inactive)
CC(C)OC(=O)Nc1ccc2nc(-c3ccccc3)c(-c3ccccc3)nc2c1,–,> 20 µM (inactive)
Fc1ccc(-c2cn3nc(-c4ccc(F)cc4)c(-c4ccc(F)cc4)nc3n2)cc1,5.40,–
CC(C)CS(=O)(=O)Nc1ccc2nc(-c3cccs3)c(-c3cccs3)nc2c1,–,> 20 µM (inactive)
Cc1ccc(-c2nc3nc(-c4ccc(C#N)cc4)cn3nc2-c2ccc(C)cc2)cc1,–,> 20 µM (inactive)
COc1ccccc1-c1cn2nc(-c3ccccc3)c(-c3ccccc3)nc2n1,–,> 20 µM (inactive)
COc1ccc(-c2nc3nc(-c4ccc(F)cc4)cn3nc2-c2ccc(OC)cc2)cc1,5.51,–
CS(=O)(=O)c1ccc(-c2cn3nc(-c4ccc(F)cc4)c(-c4ccc(F)cc4)nc3n2)cc1,–,> 20 µM (inactive)
CCCCOC(=O)Nc1ccc2nc(-c3ccccc3)c(-c3ccccc3)nc2c1,–,> 20 µM (inactive)
CC(C)NC(=O)Nc1ccc2nc(-c3ccccc3)c(-c3ccccc3)nc2c1,–,> 20 µM (inactive)
COc1ccc(-c2nc3nc(-c4ccc(C)cc4)cn3nc2-c2ccc(OC)cc2)cc1,–,> 20 µM (inactive)
COc1ccc(-c2cn3nc(-c4ccccc4)c(-c4ccccc4)nc3n2)c(OC)c1,–,> 20 µM (inactive)
COc1ccc(-c2nc3nc(-c4ccc(OC)cc4OC)cn3nc2-c2ccc(OC)cc2)cc1,–,> 20 µM (inactive)
Cc1ccc(-c2nc3nc(-c4ccccc4)cn3nc2-c2ccc(C)cc2)cc1,5.17,–
CCC(=O)Nc1ccc2nc(-c3ccccc3)c(-c3ccccc3)nc2c1,–,> 20 µM (inactive)
O=C(Nc1ccc2nc(-c3ccccc3)c(-c3ccccc3)nc2c1)C1CCC1,–,> 20 µM (inactive)
COc1ccc(-c2nc3nc(-c4cccc(F)c4)cn3nc2-c2ccc(OC)cc2)cc1,5.26,–
COc1ccc(-c2cn3nc(-c4ccc(OC)cc4)c(-c4ccc(OC)cc4)nc3n2)cc1,–,> 20 µM (inactive)

# — PubChem BioAssay AID720672 (NMMLSC, 2013)
